The assay deals with KDM5B (Homo sapiens (Human), UniProt Q9UGL1). Description: KDM5B TR-FRET Enzyme Activity Assay. The class given is biochemical. Particulars: LANCE TR-FRET; 5 nM full-length recombinant KDM5B; ten point titration 100000 nM to 5.08 nM. The method, then: KDM5B TR-FRET Enzyme Activity Assay
KDM5B enzymatic activity was determined with the LANCE (Lanthanide Chelate Excite) TR-FRET (Time-resolved fluorescence resonance energy transfer) assay. […] To each well of a white Greiner 1536 Lumitrac 1536 well-plate, 50 nL of compound (100 fold dilution in final assay volume of 5 μL) was dispensed, followed by the addition of 4 μL of 1× assay buffer (50 mM Hepes 7.3, 0.5 mM TCEP, 0.005% Brij-35, 0.02% BSA, 50 μM Na-L-Ascorbate and 2 μM AmFe(II)Sulfate) containing 5 nM of Full-length KDM5B enzyme (recombinant protein from baculovirus-transfected Sf21 cells: full-length KDM5B; MW=176.825 kDa). Following a 30 minutes compound and enzyme incubation in a humidified chamber, each reaction was initiated by the addition of 1 μL 1× assay buffer containing […] biotinylated H3K4Me3 peptide, and 500 nM α-ketoglutarate. The final reaction in each well of 5 μL consists of 5 nM KDM5B, 500 nM biotinylated-peptide, and 500 nM α-ketoglutarate. De-methylation reactions were allowed to proceed for 60 minutes. Reactions were immediately quenched by the addition of 5 uL of 2× Lance Detection Buffer (PerkinElmer) with 0.5 mM EDTA and 2 nM of Eu-anti-H3K4Me1-2 antibody, and 30 nM of Streptavidin-conjugated Dylight 650 detection reagents. After 60 minutes incubation with detection reagents, reaction plates were read on a PerkinElmer EnVision plate reader using standard TR-FRET protocol. Briefly, excitation of donor molecules (Eu-chelate-anti-H3K4Me1-2-antibody) with a laser light source at 337 nm produces energy that can be transferred to Dylight-650 acceptor molecules if this donor:acceptor pair is within close proximity. Fluorescence intensity at both 665 nm (acceptor) and 615 nm (donor) are measured and a TR-FRET ratio calculated for each well (acceptor intensity/donor intensity). IC50 values were determined by 4 parameter robust fit of TR-FRET ratio values vs. (Log 10) compound concentrations.
(In general: TR-FRET usually uses a lanthanide donor and a delayed reading to cut background.)

KDM5B, sequence (Q9UGL1 whole entry): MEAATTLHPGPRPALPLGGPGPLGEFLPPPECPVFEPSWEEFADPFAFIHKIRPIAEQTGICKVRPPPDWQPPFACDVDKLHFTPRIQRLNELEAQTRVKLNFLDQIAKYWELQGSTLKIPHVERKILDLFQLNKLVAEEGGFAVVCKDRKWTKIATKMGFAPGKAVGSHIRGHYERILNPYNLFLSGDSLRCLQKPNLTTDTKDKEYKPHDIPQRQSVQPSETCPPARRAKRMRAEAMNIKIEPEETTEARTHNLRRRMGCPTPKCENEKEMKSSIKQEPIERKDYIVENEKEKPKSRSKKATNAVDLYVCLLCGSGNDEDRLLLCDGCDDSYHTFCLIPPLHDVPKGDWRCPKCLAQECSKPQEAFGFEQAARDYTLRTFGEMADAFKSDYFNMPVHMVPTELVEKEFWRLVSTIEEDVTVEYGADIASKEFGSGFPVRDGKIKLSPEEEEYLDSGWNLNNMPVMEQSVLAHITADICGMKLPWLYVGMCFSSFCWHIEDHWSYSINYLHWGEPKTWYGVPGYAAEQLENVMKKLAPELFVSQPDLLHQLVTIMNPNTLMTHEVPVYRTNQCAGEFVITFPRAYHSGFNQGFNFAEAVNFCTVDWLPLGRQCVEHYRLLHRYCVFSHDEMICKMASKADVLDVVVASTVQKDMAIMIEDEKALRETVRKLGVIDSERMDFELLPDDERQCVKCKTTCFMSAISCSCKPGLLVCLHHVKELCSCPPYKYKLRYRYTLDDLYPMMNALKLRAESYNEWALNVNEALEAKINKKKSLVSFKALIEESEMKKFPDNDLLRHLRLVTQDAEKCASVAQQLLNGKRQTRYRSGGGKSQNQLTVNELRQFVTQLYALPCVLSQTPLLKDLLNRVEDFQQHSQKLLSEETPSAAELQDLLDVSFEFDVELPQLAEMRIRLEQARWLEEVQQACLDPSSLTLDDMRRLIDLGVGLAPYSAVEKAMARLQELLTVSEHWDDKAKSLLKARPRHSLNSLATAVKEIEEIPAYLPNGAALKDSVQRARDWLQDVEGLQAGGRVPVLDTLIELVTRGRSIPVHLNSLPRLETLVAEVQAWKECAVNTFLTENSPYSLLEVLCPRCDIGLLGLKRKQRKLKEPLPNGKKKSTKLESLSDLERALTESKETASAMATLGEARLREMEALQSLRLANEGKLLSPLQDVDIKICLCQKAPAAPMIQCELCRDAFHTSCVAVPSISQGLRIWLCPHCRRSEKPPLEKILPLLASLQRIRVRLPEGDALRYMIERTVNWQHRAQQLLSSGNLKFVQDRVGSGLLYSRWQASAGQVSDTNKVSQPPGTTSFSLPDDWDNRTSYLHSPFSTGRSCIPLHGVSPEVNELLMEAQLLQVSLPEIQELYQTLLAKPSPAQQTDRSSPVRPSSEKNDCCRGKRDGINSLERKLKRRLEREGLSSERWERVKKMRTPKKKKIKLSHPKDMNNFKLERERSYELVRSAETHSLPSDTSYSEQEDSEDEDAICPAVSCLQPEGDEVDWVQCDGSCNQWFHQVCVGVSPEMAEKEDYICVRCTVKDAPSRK

In the case of `O=c1cc(C(F)(F)F)[nH]c2ncnn12` [Example 8-3, 5-(trifluoromethyl)[1,2,4]triazolo[1,5-a]pyrimidin-7(4H)-one], the 50% inhibitory concentration (IC50) (as a rule, the concentration that gives 50% inhibition) amounted to 13.4 µM. `Cc1cc(=O)n2ncnc2[nH]1` [Example 8-4, 5-methyl-[1,2,4]triazolo[1,5-a]pyrimidin-7(4H)-one]: the IC50 was 26.4 µM.

With `O=c1cc(-c2ccccc2)[nH]c2ncnn12` [Example 8-5, 5-phenyl-[1,2,4]triazolo[1,5-a]pyrimidin-7(4H)-one], the half-inhibitory concentration (IC50) amounted to 2.24 µM. Turning to `CCCc1cc(=O)n2ncnc2[nH]1` [Example 8-6], the IC50 came out at 47.6 µM.

Consider `COC(=O)Cc1c(C)[nH]c2ncnn2c1=O` [Example 8-7, methyl (5-methyl-7-oxo-4,7-dihydro[1,2,4]triazolo[1,5-a]pyrimidin-6-yl)acetate], for which the IC50 came to 21.3 µM. Take `O=c1cc(-c2ccc(F)cc2)[nH]c2ncnn12` [Example 8-8, 5-(4-fluorophenyl)[1,2,4]triazolo[1,5-a]pyrimidin-7(4H)-one]: the IC50 was determined as 1.3 µM. In the case of `CCc1cc(=O)n2ncnc2[nH]1` [Example 8-9, 5-ethyl-[1,2,4]triazolo[1,5-a]pyrimidin-7(4H)-one], the IC50 was 21.8 µM. Then `CCOC(=O)c1[nH]c2ncnn2c(=O)c1Cl` [Example 8-10, ethyl 6-chloro-7-oxo-4,7-dihydro[1,2,4]triazolo[1,5-a]pyrimidine-5-carboxylate], with 6.28 µM; and `CCOC(=O)c1[nH]c2ncnn2c(=O)c1C` [Example 8-11, ethyl 6-methyl-7-oxo-4,7-dihydro[1,2,4]triazolo[1,5-a]pyrimidine-5-carboxylate], with 6.75 µM.

Take `Cc1[nH]c2ncnn2c(=O)c1C(C)C` [Example 8-12, 5-methyl-6-(1-methylethyl)[1,2,4]triazolo[1,5-a]pyrimidin-7(4H)-one]: the IC50 is 0.474 µM. For `Cn1ccc(-c2cc(=O)n3ncnc3[nH]2)n1` [Example 8-13, 5-(1-methyl-1H-pyrazol-3-yl)[1,2,4]triazolo[1,5-a]pyrimidin-7(4H)-one], the IC50 amounted to 29.2 µM.

`CCc1c(C(F)(F)F)[nH]c2ncnn2c1=O` [Example 8-16, 6-ethyl-5-(trifluoromethyl)[1,2,4]triazolo[1,5-a]pyrimidin-7(4H)-one]: the half-maximal inhibitory concentration (IC50) was 1.59 µM. Turning to `O=c1c(F)c(C(F)(F)F)[nH]c2ncnn12` [Example 8-17, 6-fluoro-5-(trifluoromethyl)[1,2,4]triazolo[1,5-a]pyrimidin-7(4H)-one], the IC50 came out at 25.7 µM. Then `CCc1[nH]c2ncnn2c(=O)c1C` [Example 8-18, 5-ethyl-6-methyl[1,2,4]triazolo[1,5-a]pyrimidin-7(4H)-one], with 31.9 µM; and `CC(C)n1cc(-c2cc(=O)n3ncnc3[nH]2)cn1` [Example 8-19, 5-[1-(1-methylethyl)-1H-pyrazol-4-yl][1,2,4]triazolo[1,5-a]pyrimidin-7(4H)-one], with 1.53 µM; and `O=c1cc(C2CCOCC2)[nH]c2ncnn12` [Example 8-20, 5-(tetrahydro-2H-pyran-4-yl)[1,2,4]triazolo[1,5-a]pyrimidin-7(4H)-one], with 81.3 µM.

Consider `O=c1cc(-c2ccoc2)[nH]c2ncnn12` [Example 8-21, 5-furan-3-yl[1,2,4]triazolo[1,5-a]pyrimidin-7(4H)-one], for which the half-maximal inhibitory concentration (IC50) stood at 4.1 µM. Turning to `O=c1cc(-c2ccncc2)[nH]c2ncnn12` [Example 8-22, 5-pyridin-4-yl[1,2,4]triazolo[1,5-a]pyrimidin-7(4H)-one], the IC50 was 18.9 µM. Then `O=c1cc(-c2ccccn2)[nH]c2ncnn12` [Example 8-23, 5-pyridin-2-yl[1,2,4]triazolo[1,5-a]pyrimidin-7(4H)-one], with 2.42 µM; and `O=c1cc(-c2ccco2)[nH]c2ncnn12` [Example 8-24, 5-furan-2-yl[1,2,4]triazolo[1,5-a]pyrimidin-7(4H)-one], with 6.79 µM. `Cc1[nH]c2ncnn2c(=O)c1F` [Example 8-25, 6-fluoro-5-methyl[1,2,4]triazolo[1,5-a]pyrimidin-7(4H)-one]: the IC50 was found to be 17.9 µM.

Regarding `O=c1cc(-c2ccc(Cl)cc2)[nH]c2ncnn12` [Example 8-26, 5-(4-chlorophenyl)[1,2,4]triazolo[1,5-a]pyrimidin-7(4H)-one], the concentration for half-maximal inhibition (IC50) turned out to be 1.39 µM. As to `O=c1cc(-c2ccccc2Cl)[nH]c2ncnn12` [Example 8-27, 5-(2-chlorophenyl)[1,2,4]triazolo[1,5-a]pyrimidin-7(4H)-one], the IC50 is 10.1 µM. On to `O=c1cc(-c2ccccc2F)[nH]c2ncnn12` [Example 8-28, 5-(2-fluorophenyl)[1,2,4]triazolo[1,5-a]pyrimidin-7(4H)-one], for which the IC50 was determined as 5.54 µM. For the compound `O=c1cc(-c2cccc(Cl)c2)[nH]c2ncnn12` [Example 8-29, 5-(3-chlorophenyl)[1,2,4]triazolo[1,5-a]pyrimidin-7(4H)-one], the IC50 was 2.98 µM. In the case of `O=c1cc(-c2cccc(F)c2)[nH]c2ncnn12` [Example 8-30, 5-(3-fluorophenyl)[1,2,4]triazolo[1,5-a]pyrimidin-7(4H)-one], the IC50 turned out to be 2.45 µM. As to `Cn1cc(-c2cc(=O)n3ncnc3[nH]2)cn1` [Example 8-31, 5-(1-methyl-1H-pyrazol-4-yl)[1,2,4]triazolo[1,5-a]pyrimidin-7(4H)-one], the IC50 came to 3.33 µM. With `CCCc1[nH]c2ncnn2c(=O)c1-c1ccccc1` [Example 8-32, 6-phenyl-5-propyl[1,2,4]triazolo[1,5-a]pyrimidin-7(4H)-one] the figure was 37.6 µM; with `CC(C)c1cc(=O)n2ncnc2[nH]1` [Example 8-33, 5-(1-methylethyl)[1,2,4]triazolo[1,5-a]pyrimidin-7(4H)-one], 82.3 µM. In the case of `CCc1c(-c2ccccc2)[nH]c2ncnn2c1=O` [Example 8-34, 6-ethyl-5-phenyl[1,2,4]triazolo[1,5-a]pyrimidin-7(4H)-one], the IC50 stood at 0.519 µM.

As to `CC(C)c1c(-c2ccccc2)[nH]c2ncnn2c1=O` [Example 8-35, 6-(1-methylethyl)-5-phenyl[1,2,4]triazolo[1,5-a]pyrimidin-7(4H)-one], the IC50 stood at 0.271 µM. For the compound `CCc1c(C)[nH]c2ncnn2c1=O` [Example 8-36, 6-ethyl-5-methyl-[1,2,4]triazolo[1,5-a]pyrimidin-7(4H)-one], the IC50 came to 3.49 µM. For `CCc1c(C)[nH]c2nncn2c1=O` [Example 8-37, 6-ethyl-7-methyl[1,2,4]triazolo[4,3-a]pyrimidin-5(8H)-one], the IC50 worked out at 91.7 µM.

Consider `CC(C)c1c(-c2cnn(C)c2)[nH]c2ncnn2c1=O` [Example 8-38, 6-(1-methylethyl)-5-(1-methyl-1H-pyrazol-4-yl)[1,2,4]triazolo[1,5-a]pyrimidin-7(4H)-one], for which the IC50 came out at 0.0162 µM. `CC(C)(C)n1cc(-c2[nH]c3ncnn3c(=O)c2CC(F)(F)F)cn1` [Example 8-39, 5-(1-tert-butyl-1H-pyrazol-4-yl)-6-(2,2,2-trifluoroethyl)[1,2,4]triazolo[1,5-a]pyrimidin-7(4H)-one]: the 50% inhibitory concentration (IC50) stood at 0.0871 µM.

On to `O=c1c(C2CCC2)c(-c2ccc(F)cc2)[nH]c2ncnn12` [Example 8-40, 6-cyclobutyl-5-(4-fluorophenyl)[1,2,4]triazolo[1,5-a]pyrimidin-7(4H)-one], for which the IC50 was determined as 1.03 µM. As to `CC(C)n1cc(-c2[nH]c3ncnn3c(=O)c2C2CCC2)cn1` [Example 8-41, 6-cyclobutyl-5-[1-(1-methylethyl)-1H-pyrazol-4-yl][1,2,4]triazolo[1,5-a]pyrimidin-7(4H)-one], the IC50 came out at 0.0329 µM. `CC(C)(C)c1c(-c2cnn(C(C)(C)C)c2)[nH]c2ncnn2c1=O` [Example 11-4, 6-tert-butyl-5-(1-tert-butyl-1H-pyrazol-4-yl)[1,2,4]triazolo[1,5-a]pyrimidin-7(4H)-one]: the IC50 came out at 0.904 µM. Consider `CC(C)(C)c1c(-c2ccc(F)cc2)[nH]c2ncnn2c1=O` [Example 11-5, 6-tert-butyl-5-(4-fluorophenyl)[1,2,4]triazolo[1,5-a]pyrimidin-7(4H)-one], for which the concentration for half-maximal inhibition (IC50) came to 5.4 µM. On to `Cn1cc(-c2[nH]c3ncnn3c(=O)c2C(C)(C)C)cn1` [Example 11-6, 6-tert-butyl-5-(1-methyl-1H-pyrazol-4-yl)[1,2,4]triazolo[1,5-a]pyrimidin-7(4H)-one], for which the concentration for half-maximal inhibition (IC50) is 1.27 µM. With `CC(C)(C)c1c(-c2cnn(-c3ccccc3)c2)[nH]c2ncnn2c1=O` [Example 11-7, 6-tert-butyl-5-(1-phenyl-1H-pyrazol-4-yl)[1,2,4]triazolo[1,5-a]pyrimidin-7(4H)-one], the IC50 came to 0.772 µM. `CC(C)c1c(-c2cnn(-c3ccccc3)c2)[nH]c2ncnn2c1=O` [Example 11-8, 6-(1-methylethyl)-5-(1-phenyl-1H-pyrazol-4-yl)[1,2,4]triazolo[1,5-a]pyrimidin-7(4H)-one]: the IC50 was determined as 0.00628 µM.

The values above are taken from patent US10975084B2, “KDM5 inhibitors” (Merck Sharp & Dohme Corp., priority 2016, dated 2021).
